The results in this text go back to patent US9879032B2, “Pyridine compounds” (Daiichi Sankyo Company, Limited, priority 2015, dated 2018).

Molecules are shown by their SMILES.

human TNAP, sequence (P05186 18-502): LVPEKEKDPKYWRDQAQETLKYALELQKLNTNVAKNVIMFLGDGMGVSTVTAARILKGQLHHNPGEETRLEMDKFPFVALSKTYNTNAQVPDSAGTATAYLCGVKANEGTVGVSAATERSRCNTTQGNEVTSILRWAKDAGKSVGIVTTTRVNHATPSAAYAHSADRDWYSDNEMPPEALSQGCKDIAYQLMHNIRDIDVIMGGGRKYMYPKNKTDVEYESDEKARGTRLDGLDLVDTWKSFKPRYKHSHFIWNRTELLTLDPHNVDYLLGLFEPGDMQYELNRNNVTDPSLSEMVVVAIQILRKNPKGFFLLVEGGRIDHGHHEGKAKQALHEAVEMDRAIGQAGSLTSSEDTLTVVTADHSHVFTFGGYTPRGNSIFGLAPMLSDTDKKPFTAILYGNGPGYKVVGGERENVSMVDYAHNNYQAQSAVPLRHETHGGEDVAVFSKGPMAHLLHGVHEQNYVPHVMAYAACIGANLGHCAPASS

The first assay deals with human TNAP (Homo sapiens (Human), UniProt P05186). Briefly: Inhibitory test of TNAP activity (pNPP substrate, p-nitrophenol production). The note with it: inhibition of human TNAP activity, incubated at room temperature for 60 minutes. It counts as biochemical. The method, then:
COS 1 cells (DS Pharma Biomedical Co., Ltd.) were transfected with human TNAP (OriGene Technologies, Inc.) using Lipofectamine LTX & Plus reagent (Invitrogen Corp.). On the next day, the medium was replaced with a fresh medium, and the cells were cultured in an incubator for 3 days. After 3 days, the culture supernatant was collected and concentrated by centrifugation at 5000 G for 30 minutes using Amicon 14, 10^4 cut (Merck Millipore). The concentrated culture supernatant was dialyzed against 5 L of 50 mM Tris/200 mM NaCl/1 mM MgCl2/20 μM ZnCl2 twice and used as an enzyme source (enzyme solution). The substrate pNPP (ProteoChem Inc.) was adjusted to 3.1 mM with Milli-Q water, and a solution of each test compound dissolved in dimethyl sulfoxide (DMSO; Wako Pure Chemical Industries, Ltd.) by 6 serial dilutions at a 5-fold common ratio from 100 μM, or DMSO was added thereto at a final concentration of 1% by volume. The enzyme solution adjusted to 2 μg/mL with an assay buffer (200 mM Tris/2 mM MgCl2/0.04 mM ZnCl2/0.01% Tween 20) was added in the same amount of the substrate solution and incubated at room temperature for 60 minutes. Then, the absorbance (ABS: 405 nm) was measured using a microplate reader (model plus 384, Molecular Devices, LLC), and the concentration of produced p-nitrophenol was calculated.
Take `O=C1N[C@@H](CO)COc2ncc(NS(=O)(=O)c3cc(Cl)ccc3OC(F)(F)F)cc21` [Example 31, 5-Chloro-N-[(3S)-3-(hydroxymethyl)-5-oxo-2,3,4,5-tetrahydropyrido[3,2-f][1,4]oxazepin-7-yl]-2-(trifluoromethoxy)benzenesulfonamide]: the IC50 came to 1.6 nM.
On the same count and under the same terms, next, `O=C1N[C@@H](CO)COc2ncc(NS(=O)(=O)c3cc(F)ccc3OC(F)(F)F)cc21` [Example 32, 5-Fluoro-N-[(3S)-3-(hydroxymethyl)-5-oxo-2,3,4,5-tetrahydropyrido[3,2-f][1,4]oxazepin-7-yl]-2-(trifluoromethoxy)benzenesulfonamide]: 4.1 nM; `COc1ccc(Cl)cc1S(=O)(=O)Nc1cnc2c(c1)C(=O)N[C@@H](CCO)CO2` [Example 33, 5-Chloro-N-[(3S)-3-(2-hydroxyethyl)-5-oxo-2,3,4,5-tetrahydropyrido[3,2-f][1,4]oxazepin-7-yl]-2-methoxybenzenesulfonamide]: 1.9 nM.
Same read-out and setting: next, `COc1ccc(Cl)cc1S(=O)(=O)Nc1cnc2c(c1)C(=O)N[C@@H](CC(=O)N(C)C)CO2` [Example 34, 2-[(3S)-7-{[(5-Chloro-2-methoxyphenyl)sulfonyl]amino}-5-oxo-2,3,4,5-tetrahydropyrido[3,2-f][1,4]oxazepin-3-yl]-N,N-dimethylacetamide]: 6.7 nM.
Same read-out and setting: next, `COc1ccc(Cl)cc1S(=O)(=O)Nc1cnc2c(c1)C(=O)NC1(CC1)CO2` [Example 35, 5-Chloro-2-methoxy-N-(5′-oxo-4′,5′-dihydrospiro[cyclopropane-1,3′-pyrido[3,2-f][1,4]oxazepin]-7′-yl)benzenesulfonamide]: 1.1 nM; `COc1ccc(F)cc1S(=O)(=O)Nc1cnc2c(c1)C(=O)NC1(CC1)CO2` [Example 36, 5-Fluoro-2-methoxy-N-(5′-oxo-4′,5′-dihydrospiro[cyclopropane-1,3′-pyrido[3,2-f][1,4]oxazepin]-7′-yl)benzenesulfonamide]: 2.2 nM.
`COc1ccc(Cl)cc1S(=O)(=O)Nc1cnc2c(c1)C(=O)N(c1ccccc1)CCO2` [Example 37, 5-Chloro-2-methoxy-N-(5-oxo-4-phenyl-2,3,4,5-tetrahydropyrido[3,2-f][1,4]oxazepin-7-yl)benzenesulfonamide] came in with an IC50 of 43.4 nM.
Still for that read-out and setting: the same measure for `COc1ccc(Cl)cc1S(=O)(=O)Nc1cnc2c(c1)C(=O)N(c1ccccn1)CCO2` [Example 38, 5-Chloro-2-methoxy-N-[5-oxo-4-(pyridin-2-yl)-2,3,4,5-tetrahydropyrido[3,2-f][1,4]oxazepin-7-yl]benzenesulfonamide]: 24.4 nM.
Still for that read-out and setting: the same measure for `COc1ccc(Cl)cc1S(=O)(=O)Nc1cnc2c(c1)C(=O)N(c1cccnc1)CCO2` [Example 39, 5-Chloro-2-methoxy-N-[5-oxo-4-(pyridin-3-yl)-2,3,4,5-tetrahydropyrido[3,2-f][1,4]oxazepin-7-yl]benzenesulfonamide]: 13.2 nM; for `O=C1NC2(CC2)COc2ncc(NS(=O)(=O)c3cc(Cl)ccc3OC(F)(F)F)cc21` [Example 40, 5-Chloro-N-(5′-oxo-4′,5′-dihydrospiro[cyclopropane-1,3′-pyrido[3,2-f][1,4]oxazepin]-7′-yl)-2-(trifluoromethoxy)benzenesulfonamide]: 1.9 nM.
Still for that read-out and setting: next, `O=C1NC2(CC2)COc2ncc(NS(=O)(=O)c3cc(F)ccc3OC(F)(F)F)cc21` [Example 41, 5-Fluoro-N-(5′-oxo-4′,5′-dihydrospiro[cyclopropane-1,3′-pyrido[3,2-f][1,4]oxazepin]-7′-yl)-2-(trifluoromethoxy)benzenesulfonamide]: 2.7 nM; `CCOc1ccc(F)cc1S(=O)(=O)Nc1cnc2c(c1)C(=O)NC1(CC1)CO2` [Example 42, 2-Ethoxy-5-fluoro-N-(5′-oxo-4′,5′-dihydrospiro[cyclopropane-1,3′-pyrido[3,2-f][1,4]oxazepin]-7′-yl)benzenesulfonamide]: 0.6 nM; `COc1ccc(OC)c(S(=O)(=O)Nc2cnc3c(c2)C(=O)NC2(CC2)CO3)c1` [Example 43, 2,5-Dimethoxy-N-(5′-oxo-4′,5′-dihydrospiro[cyclopropane-1,3′-pyrido[3,2-f][1,4]oxazepin]-7′-yl)benzenesulfonamide]: 1 nM.
`COc1ccc(Cl)cc1S(=O)(=O)Nc1cnc2c(c1)C(=O)NC(c1cccnc1)CO2` (centres unmarked) [Example 44, 5-Chloro-2-methoxy-N-[5-oxo-3-(pyridin-3-yl)-2,3,4,5-tetrahydropyrido[3,2-f][1,4]oxazepin-7-yl]benzenesulfonamide] gave a 50% inhibitory concentration (IC50) of 1.4 nM.
In turn, `COc1ccc(Cl)cc1S(=O)(=O)Nc1cnc2c(c1)C(=O)NC(C(=O)N(C)C)CO2` (centres unmarked) [Example 45, 7-{[(5-Chloro-2-methoxyphenyl)sulfonyl]amino}-N,N-dimethyl-5-oxo-2,3,4,5-tetrahydropyrido[3,2-f][1,4]oxazepine-3-carboxamide] displayed an IC50 of 14.6 nM.
For `COc1ccc(Cl)cc1S(=O)(=O)Nc1cnc2c(c1)C(=O)NC(C(=O)N1CCOCC1)CO2` (centres unmarked) [Example 46, 5-chloro-2-methoxy-N-[3-(morpholin-4-ylcarbonyl)-5-oxo-2,3,4,5-tetrahydropyrido[3,2-f][1,4]oxazepin-7-yl]benzenesulfonamide], the half-maximal inhibitory concentration (IC50) turned out to be 25.2 nM.

The next assay concerns plasma ALP (80-90% containing TNAP). Briefly: Inhibitory test of plasma TNAP activity in B6 mouse. Particulars: administered orally, average inhibition from 0 hour to 6 hours after administration. It is filed as in vivo. The method, then:
After blood sampling from the tail vein using a heparin-treated hematocrit capillary tube (EM Meister Hematocrit Capillary Tube, AS ONE Corp.) (as the sample before compound administration), each test compound suspended in a 0.5% methylcellulose solution (powder purchased from Wako Pure Chemical Industries, Ltd. was adjusted to 0.5% with Otsuka distilled water) was administered orally to the mouse. 1, 2, 4, 6, and 24 hours after the administration, blood was collected from the tail vein using a heparin-treated hematocrit capillary tube to obtain a plasma sample. The plasma sample was added to an assay buffer (1 M Tris, 1 M MgCl2, 20 mM ZnCl2, and water, pH 7.5), and the mixture was left standing for 5 minutes. Then, the absorbance at 405 nm was measured and used as a blank. The substrate pNPP was added to the plasma sample and incubated at room temperature for 180 minutes. Then, the absorbance (ABS: 405 nm) was measured using a microplate reader (model plus 384, Molecular Devices, LLC), and the concentration of produced p-nitrophenol was calculated. The blank was subtracted from all measurement values to calculate TNAP activity at each time point with the TNAP activity of the sample before compound administration defined as 100%. The pharmaceutical effect of the test compound was evaluated by the average inhibition of plasma ALP (80-90% containing TNAP) activity for 6 hours from 0 hour to 6 hours after the administration of the test compound. It was calculated according to the following expression: 100−((plasma ALP activity at 0 hr+plasma ALP activity at 1 hr)*1/2+(plasma ALP activity at 1 hr+plasma ALP activity at 2 hr)*1/2+(plasma ALP activity at 2 hr+plasma ALP activity at 4 hr)*2/2+(plasma ALP activity at 4 hr+plasma ALP activity at 6 hr)*2/2)/6.
In the case of `COc1ccc(Cl)cc1S(=O)(=O)[N-]c1cnc2c(c1)C(=O)NCCO2.[K+]` [Example 47, Potassium [(5-chloro-2-methoxyphenyl)sulfonyl](5-oxo-2,3,4,5-tetrahydropyrido[3,2-f][1,4]oxazepin-7-yl)azanide], the “Plasma ALP inhibition (6 h ave. inhibition %)” value came out at 54.7%.
On the same count and under the same terms, next, `COc1ccc(F)cc1S(=O)(=O)[N-]c1cnc2c(c1)C(=O)NCCO2.[K+]` [Example 48, Potassium [(5-fluoro-2-methoxyphenyl)sulfonyl](5-oxo-2,3,4,5-tetrahydropyrido[3,2-f][1,4]oxazepin-7-yl)azanide]: 61.6%; `O=C1NCCOc2ncc([N-]S(=O)(=O)c3cc(Cl)ccc3OC(F)(F)F)cc21.[K+]` [Example 50, Potassium {[5-chloro-2-(trifluoromethoxy)phenyl]sulfonyl}(5-oxo-2,3,4,5-tetrahydropyrido[3,2-f][1,4]oxazepin-7-yl)azanide]: 56.0%; `COc1ccc(Cl)cc1S(=O)(=O)[N-]c1cnc2c(c1)C(=O)N[C@@H](CO)CO2.[K+]` [Example 51, Potassium [(5-chloro-2-methoxyphenyl)sulfonyl][(3S)-3-(hydroxymethyl)-5-oxo-2,3,4,5-tetrahydropyrido[3,2-f][1,4]oxazepin-7-yl]azanide]: 63.7%.
`COc1ccc(F)cc1S(=O)(=O)[N-]c1cnc2c(c1)C(=O)N[C@@H](CO)CO2.[K+]` [Example 52, Potassium [(5-fluoro-2-methoxyphenyl)sulfonyl][(3S)-3-(hydroxymethyl)-5-oxo-2,3,4,5-tetrahydropyrido[3,2-f][1,4]oxazepin-7-yl]azanide]: the “Plasma ALP inhibition (6 h ave. inhibition %)” value is given as 61.3%.
Still for that read-out and setting: the same measure for `COc1ccc(Br)cc1S(=O)(=O)[N-]c1cnc2c(c1)C(=O)N[C@@H](CO)CO2.[K+]` [Example 53, Potassium [(5-bromo-2-methoxyphenyl)sulfonyl][(3S)-3-(hydroxymethyl)-5-oxo-2,3,4,5-tetrahydropyrido[3,2-f][1,4]oxazepin-7-yl]azanide]: 59.2%; for `O=C1N[C@@H](CO)COc2ncc([N-]S(=O)(=O)c3cc(Cl)ccc3OC(F)(F)F)cc21.[K+]` [Example 54, Potassium {[5-chloro-2-(trifluoromethoxy)phenyl]sulfonyl}[(3S)-3-(hydroxymethyl)-5-oxo-2,3,4,5-tetrahydropyrido[3,2-f][1,4]oxazepin-7-yl]azanide]: 74.8%.

As a reminder, the IC50 is the point on the concentration scale where inhibition reaches its midpoint. Low values mean greater potency, high ones weaker potency.
